Source: the supplement of paper PMC11061612

Tests used:
Assay in all cases: Bliss excess, mean over the matrix (fraction); higher = more synergy
[1] = tested on: 23132-87 (Gastric Carcinoma)
In short: (§1)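 Cell lines grown in DMEM/F12 or RPMI with 10% FBS were plated in 1536-well plates and held 24 hours at 37°C, 5% CO2 before 72 hours of exposure to two-drug dose matrices, with DMSO typically at 0.2%. CellTiter-Glo 2.0 luminescence gave viability, which was converted to inhibition. Vehicle wells were set to 0 and blank wells to 1. Combination Emax is the second-highest inhibition in the matrix, and Bliss excess is the observed combination effect minus the expected EA + EB − EA·EB, where EA and EB are the single-agent effects.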

[2] = tested on: CAL-120 (Breast Carcinoma)
In short: as §1

[3] = tested on: CAL-62 (Thyroid Gland Carcinoma)
In short: as §1

[4] = tested on: COLO-680N (Esophageal Squamous Cell Carcinoma)
In short: as §1

[5] = tested on: KE-37 (T-Lymphoblastic Leukemia)
In short: as §1

[6] = tested on: L-1236 (Hodgkin's Lymphoma)
In short: as §1

[7] = tested on: LB996-RCC (Kidney Carcinoma)
In short: as §1

[8] = tested on: LK-2 (Squamous Cell Lung Carcinoma)
In short: as §1

[9] = tested on: LXF-289 (Lung Adenocarcinoma)
In short: as §1

[10] = tested on: OAW-42 (Ovarian Carcinoma)
In short: as §1

[11] = tested on: OPM-2 (Plasma Cell Myeloma)
In short: as §1

[12] = tested on: PANC-03-27 (Pancreatic Carcinoma)
In short: as §1

[13] = tested on: PC-3_[JPC-3] (Lung Adenocarcinoma)
In short: as §1

[14] = tested on: RCM-1 (Colorectal Carcinoma)
In short: as §1

[15] = tested on: RERF-GC-1B (Gastric Carcinoma)
In short: as §1

[16] = tested on: RERF-LC-Sq1 (Squamous Cell Lung Carcinoma)
In short: as §1

[17] = tested on: SHP-77 (Small Cell Lung Carcinoma)
In short: as §1

[18] = tested on: TE-8 (Esophageal Squamous Cell Carcinoma)
In short: as §1

A2058 (Melanoma) = tested on: A2058 (Melanoma)
In short: as §1

[19] = tested on: NCI-H2342 (Lung Adenocarcinoma)
In short: as §1

Compound | Bliss excess [1] | Bliss excess [2] | Bliss excess [3] | Bliss excess [4] | Bliss excess [5] | Bliss excess [6] | Bliss excess [7] | Bliss excess [8] | Bliss excess [9] | Bliss excess [10] | Bliss excess [11] | Bliss excess [12] | Bliss excess [13] | Bliss excess [14] | Bliss excess [15] | Bliss excess [16] | Bliss excess [17] | Bliss excess [18] | Bliss excess (A2058 (Melanoma)) | Bliss excess [19]
CN(CCO)CC[C@H](CSc1ccccc1)Nc1ccc(S(=O)(=O)NC(=O)c2ccc(N3CCC([C@@H](O)c4ccccc4-c4ccc(Cl)cc4)CC3)cc2)cc1S(=O)(=O)C(F)(F)F [AZD4320] + Cn1cnc2c(F)c(Nc3ccc(Br)cc3Cl)c(C(=O)NOCCO)cc21 [Selumetinib] (first compound max 1 µM, 7x7, partner max 3 µM) | 0.0543 | 0.0577 | -0.0051 | 0.0047 | 0.0464 | 0.0288 | -0.0445 | -0.0134 | -0.0301 | -0.0115 | 0.0683 | 0.0406 | 0.0339 | 0.0333 | 0.022 | 0.0158 | 0.0429 | -0.0628 | – | –
COc1nnc2ccc(N3CCC(c4ccc(OCCN5CCN(C)C(=O)[C@H]5C)cc4)CC3)nn12 [AZD5153] + CN(CC[C@H](CSC1=CC=CC=C1)NC2=C(C=C(C=C2)S(=O)(=O)NC(=O)C3=CC=C(C=C3)N4CCC(CC4)[C@H](C5=CC=CC=C5C6=CC=C(C=C6)Cl)O)S(=O)(=O)C(F)(F)F)CCO [AZD4320] (first compound max 1 µM, 7x7, partner max 1 µM) | -0.0551 | 0.0415 | – | – | 0.0222 | – | 0.0253 | – | 0.0194 | 0.0913 | – | – | – | – | 0.014 | 0.0113 | – | – | -0.0062 | –
C=CCn1c(=O)c2cnc(Nc3ccc(N4CCN(C)CC4)cc3)nc2n1-c1cccc(C(C)(C)O)n1 [AZD1775] + C1CN(CCC1(C(=O)N[C@@H](CCO)C2=CC=C(C=C2)Cl)N)C3=NC=NC4=C3C=CN4 [Capivasertib] (first compound max 3 µM, partner max 3 µM) | -0.0207 | -0.0265 | 0.0089 | 0.0133 | -0.0132 | -0.097 | -0.0587 | -0.0913 | -0.0046 | -0.0399 | 0.0001 | -0.0573 | -0.0534 | 0.0141 | -0.0632 | -0.0483 | -0.0114 | – | 0.0217 | -0.0136
Cc1c2c(nn1C)CSCc1cc(n(C)n1)CSc1cc(c3ccccc3c1)OCCCc1c(C(=O)O)n(C)c3c-2c(Cl)ccc13 [AZD5991] + C1CN(CCC1(C(=O)N[C@@H](CCO)C2=CC=C(C=C2)Cl)N)C3=NC=NC4=C3C=CN4 [Capivasertib] (first compound max 1 µM, 7x7, partner max 3 µM) | -0.0492 | 0.0424 | – | -0.0223 | -0.0409 | 0.0039 | 0.0013 | -0.0103 | 0.042 | 0.0312 | -0.0121 | 0.002 | -0.0062 | 0.0005 | -0.0124 | 0.0125 | -0.0033 | 0.0306 | 0.0972 | 0.0351
COc1cccc2c1C(=O)c1c(O)c3c(c(O)c1C2=O)C[C@@](O)(C(=O)CO)C[C@@H]3O[C@H]1C[C@H](N)[C@H](O)[C@H](C)O1 [Doxorubicin] + Cc1cc2ncnn2cc1Nc1ncc2c(n1)n(C1CCOCC1)c(=O)n2C [AZD7648] (first compound max 1 µM, 7x7, partner max 10 µM) | 0.049 | 0.0064 | 0.0885 | 0.0063 | 0.0912 | 0.0332 | 0.0561 | 0.0925 | 0.0233 | – | 0.0221 | 0.0557 | -0.027 | 0.0199 | -0.0142 | 0.0444 | 0.0556 | 0.0947 | 0.0185 | 0.0128
CCN(CCO)CCCOc1ccc2c(Nc3cc(CC(=O)Nc4cccc(F)c4)[nH]n3)ncnc2c1 [AZD2811] + C=CCn1c(=O)c2cnc(Nc3ccc(N4CCN(C)CC4)cc3)nc2n1-c1cccc(C(C)(C)O)n1 [AZD1775] (first compound max 1 µM, partner max 1 µM) | 0.0208 | -0.0576 | 0.0127 | -0.0147 | 0.0353 | 0.0198 | 0.0623 | -0.0952 | -0.012 | – | -0.0606 | 0.001 | -0.0752 | 0.0398 | 0.0335 | -0.0102 | 0.0241 | -0.016 | -0.0059 | -0.0052
C[C@@H](c1ccc2nccn2c1)n1nnc2ncc(-c3cnn(C)c3)nc21 [Savolitinib] + CN(CC[C@H](CSC1=CC=CC=C1)NC2=C(C=C(C=C2)S(=O)(=O)NC(=O)C3=CC=C(C=C3)N4CCC(CC4)[C@H](C5=CC=CC=C5C6=CC=C(C=C6)Cl)O)S(=O)(=O)C(F)(F)F)CCO [AZD4320] (first compound max 1 µM, 7x7, partner max 1 µM) | -0.0618 | -0.0325 | – | – | -0.0327 | – | -0.0392 | – | -0.0203 | -0.0451 | – | – | – | – | -0.0404 | -0.0075 | – | – | 0.0035 | –
COc1cccc(OCCCN)c1-c1cc(Nc2cnc(C#N)cn2)n[nH]1 [Prexasertib] + Cc1cc2ncnn2cc1Nc1ncc2c(n1)n(C1CCOCC1)c(=O)n2C [AZD7648] (first compound max 1 µM, 7x7, partner max 10 µM) | -0.0365 | 0.0045 | -0.0128 | -0.0491 | -0.006 | -0.046 | 0.0292 | -0.037 | -0.0006 | – | -0.0341 | -0.0606 | -0.0103 | -0.0166 | 0.0015 | -0.0281 | -0.0143 | -0.0448 | 0.0025 | -0.0216
CN(C)CCCOc1ccc(-c2ccc3ncc4c(c3c2)n(C2CCOCC2)c(=O)n4C)cn1 [AZD0156] + O=C(c1cc(Cc2n[nH]c(=O)c3ccccc23)ccc1F)N1CCN(C(=O)C2CC2)CC1 [Olaparib] (first compound max 3 µM, partner max 3 µM) | 0.198 | 0.0047 | 0.0939 | -0.0076 | 0.0951 | -0.0602 | 0.0071 | 0.154 | 0.092 | 0.0145 | 0.0067 | -0.0236 | -0.0349 | 0.003 | -0.0079 | 0.0396 | 0.0544 | – | 0.151 | -0.0504
CCN(CCO)CCCOc1ccc2c(Nc3cc(CC(=O)Nc4cccc(F)c4)[nH]n3)ncnc2c1 [AZD2811] + C[C@@H]1COCCN1C2=NC(=NC(=C2)C3(CC3)[S@](=N)(=O)C)C4=C5C=CNC5=NC=C4 [AZD6738] (first compound max 1 µM, 7x7, partner max 10 µM) | -0.0087 | -0.0464 | -0.0568 | -0.0737 | -0.0515 | -0.0583 | 0.0304 | -0.064 | -0.0763 | – | -0.0187 | -0.123 | -0.0453 | -0.0263 | 0.0143 | -0.0169 | -0.0583 | -0.0484 | 0.0067 | -0.0706
Cc1cc2ncnn2cc1Nc1ncc2c(n1)n(C1CCOCC1)c(=O)n2C [AZD7648] + CCN(CCO)CCCOc1ccc2c(Nc3cc(CC(=O)Nc4cccc(F)c4)[nH]n3)ncnc2c1 [AZD2811] (first compound max 10 µM, 7x7, partner max 1 µM) | -0.0151 | -0.0528 | 0.0427 | -0.0458 | -0.0002 | -0.0089 | -0.0098 | -0.0328 | 0.0397 | – | 0.0791 | -0.0255 | -0.0044 | -0.032 | 0.0209 | -0.0048 | -0.0244 | 0.0717 | 0.01 | -0.0084
CCc1c2c(nc3ccc(O)cc13)-c1cc3c(c(=O)n1C2)COC(=O)[C@]3(O)CC [SN-38] + CN(C)CCCOc1ccc(-c2ccc3ncc4c(c3c2)n(C2CCOCC2)c(=O)n4C)cn1 [AZD0156] (first compound max 0.3 µM, 7x7, partner max 1 µM) | 0.0322 | -0.0792 | -0.0143 | 0.0306 | 0.0603 | -0.079 | 0.0011 | 0.0959 | 0.0639 | – | 0.0104 | -0.0071 | -0.0551 | -0.0005 | 0.0092 | 0.114 | 0.0296 | 0.148 | 0.0477 | -0.0425
Cc1c2c(nn1C)CSCc1cc(n(C)n1)CSc1cc(c3ccccc3c1)OCCCc1c(C(=O)O)n(C)c3c-2c(Cl)ccc13 [AZD5991] + C[C@@H]1COCCN1C2=NC(=NC(=C2)C3(CC3)[S@](=N)(=O)C)C4=C5C=CNC5=NC=C4 [AZD6738] (first compound max 1 µM, 7x7, partner max 10 µM) | -0.009 | 0.0621 | 0.0278 | 0.0186 | 0.0338 | 0.104 | 0.0301 | 0.0146 | 0.0667 | 0.0046 | 0.0291 | 0.0059 | 0.0547 | -0.0371 | – | 0.0273 | -0.0048 | 0.0197 | 0.0756 | 0.0291
CN(C)CCCOc1ccc(-c2ccc3ncc4c(c3c2)n(C2CCOCC2)c(=O)n4C)cn1 [AZD0156] + CCN(CCO)CCCOc1ccc2c(Nc3cc(CC(=O)Nc4cccc(F)c4)[nH]n3)ncnc2c1 [AZD2811] (first compound max 1 µM, 7x7, partner max 1 µM) | -0.025 | -0.0164 | 0.007 | -0.0404 | -0.0173 | -0.0332 | 0.0375 | 0.0201 | 0.052 | – | 0.041 | -0.0519 | -0.0524 | -0.0241 | 0.0292 | 0.0325 | -0.034 | -0.0073 | -0.0201 | -0.054
CS(=O)(=O)CCNCc1ccc(-c2ccc3ncnc(Nc4ccc(OCc5cccc(F)c5)c(Cl)c4)c3c2)o1 [Lapatinib] + NC1(c2ccc(-c3nc4ccn5c(=O)[nH]nc5c4cc3-c3ccccc3)cc2)CCC1 [MK-2206] (first compound max 10 µM, 7x7, partner max 10 µM) | – | – | -0.0034 | 0.0426 | – | 0.0138 | – | 0.0303 | – | -0.0089 | 0.0183 | -0.0064 | -0.0174 | -0.0323 | 0.0194 | – | -0.0136 | -0.0004 | -0.049 | -0.0499
